The values below come from patent publication US20260001928A1 (CORTERIA PHARMACEUTICALS, priority 2022, published 2026).

The structures appear in SMILES notation. *1 amine or outer side, *2 acyl side, *3 side chain or, on linkers, in order; H or OH if unused. Where a SMILES comes first, the peptide text is derived from it. Side-chain parts run from the residue outwards. [ ]: non-standard residue; d: D form. The star is where a group is joined. C16 diacid = O=C(O)CCCCCCCCCCCCCCC(=O)*; γGlu = O=C(O)[C@H](CCC(=O)[*:2])N[*:1]; NMeI = CC[C@H](C)[C@H](NC)C(=O)O; αMeL = CC(C)C[C@](C)(N)C(=O)O; Ac6c = NC1(C(=O)O)CCCCC1; Ac5c = NC1(C(=O)O)CCCC1; Ac3c = NC1(C(=O)O)CC1; Aib = CC(C)(N)C(=O)O Where only a bound is given, the exact number is not on record here.

As a reminder, the EC50 is the concentration at which the effect is half-maximal. Read a high EC50 as lower potency in that assay.

Assay [1] has as its target T1, CFR1R receptor (Homo sapiens, UniProt P34998).
T1 construct: host or cells: CHO-K1 (clone 2)
T1 sequence (P34998 24-415): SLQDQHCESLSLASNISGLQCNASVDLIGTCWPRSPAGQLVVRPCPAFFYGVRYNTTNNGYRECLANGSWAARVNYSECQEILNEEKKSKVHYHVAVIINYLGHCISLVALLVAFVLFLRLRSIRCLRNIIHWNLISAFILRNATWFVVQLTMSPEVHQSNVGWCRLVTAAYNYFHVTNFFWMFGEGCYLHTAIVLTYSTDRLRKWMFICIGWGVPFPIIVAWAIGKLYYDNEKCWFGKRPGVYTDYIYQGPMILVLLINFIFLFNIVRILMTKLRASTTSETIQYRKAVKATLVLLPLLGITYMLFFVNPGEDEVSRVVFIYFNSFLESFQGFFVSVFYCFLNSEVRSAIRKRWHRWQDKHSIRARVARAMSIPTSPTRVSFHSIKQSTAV
In words: Activity at anti-target CFR1R receptor, cAMP assay in CRF1R-overexpression CHO-K1 cells. It is filed as cell-based. The following applies: 100% = Sauvagine at 100 nM; for EC50: cAMP. The procedure, abridged:
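cAMP readout in CRF1R-overexpressing CHO-K1 cells (clone 2), run as for the TeloHAEC assay at 4000 cells/well final. Cells came from cryopreserved banks. Sauvagine at 100 nM defined 100% activation.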
On the technique in general: cAMP levels reflect the balance of adenylyl cyclase and phosphodiesterase activity.

Assay [2] concerns the target T2, human CRF2a receptor (Homo sapiens, UniProt Q13324).
T2 construct: expressed in transfected cells; host or cells: TeloHEAC cells
T2 sequence (Q13324 1-411): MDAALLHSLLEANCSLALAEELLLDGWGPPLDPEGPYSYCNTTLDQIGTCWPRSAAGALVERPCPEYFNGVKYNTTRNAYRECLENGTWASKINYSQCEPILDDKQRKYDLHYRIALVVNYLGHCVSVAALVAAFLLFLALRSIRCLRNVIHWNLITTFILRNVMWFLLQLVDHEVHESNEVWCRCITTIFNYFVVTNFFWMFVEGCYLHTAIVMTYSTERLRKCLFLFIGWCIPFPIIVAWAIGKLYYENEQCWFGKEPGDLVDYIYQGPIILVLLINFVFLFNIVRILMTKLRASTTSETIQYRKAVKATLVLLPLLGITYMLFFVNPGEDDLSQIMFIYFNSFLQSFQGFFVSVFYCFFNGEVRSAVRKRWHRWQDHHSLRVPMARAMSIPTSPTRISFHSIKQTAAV
In words: Activity at human CRF2a receptor, cAMP functional assay in TeloHEAC cells. The following applies: TeloHEAC cells stably expressing human CRF2a receptor, relative to urocortin 2 (100 nM = 100%). It is filed as cell-based. The procedure, abridged:
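TeloHEAC cells stably expressing human CRF2a (10000 cells/well) were treated with 16-point 1:2 compound dilutions in HBSS/20 mM HEPES with IBMX for 30 min at 37° C. cAMP was read by HTRF (665/620 nm ratio). EC50 was the concentration giving 50% activation, with 100 nM urocortin 2 set as 100%.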

For the compound `CC[C@H](C)[C@H](NC(C)=O)C(=O)N[C@H](C(=O)N[C@@H](CC(C)C)C(=O)N[C@@H](CO)C(=O)N[C@@H](CC(C)C)C(=O)N[C@@H](CC(=O)O)C(=O)N[C@@H](C(=O)N1CCC[C@H]1C(=O)N[C@H](C(=O)N[C@@H](CCCCN)C(=O)N[C@@H](CC(C)C)C(=O)N[C@@H](CCCCNC(=O)CC[C@H](NC(=O)CCCCCCCCCCCCCCC(=O)O)C(=O)O)C(=O)N[C@@H](CCCCN)C(=O)N[C@H](C(=O)N[C@@H](CC(C)C)C(=O)N[C@@H](CC(C)C)C(=O)N[C@@H](CCC(=O)O)C(=O)N[C@@H](CCC(N)=O)C(=O)N[C@@H](CCC(=O)O)C(=O)N[C@@H](CCCCN)C(=O)N[C@@H](CCC(N)=O)C(=O)N[C@@H](CCCCN)C(=O)N[C@@H](CCCCN)C(=O)N[C@@H](CCC(N)=O)C(=O)N[C@@H](CCCNC(=N)N)C(=O)N[C@@H](CCC(=O)O)C(=O)N[C@@H](CCC(N)=O)C(=O)N[C@@H](C)C(=O)N[C@@H](CCC(=O)O)C(=O)N[C@H](C(=O)N[C@@H](CC(N)=O)C(=O)N[C@@H](CCC(=O)O)C(=O)N[C@@H](CCC(N)=O)C(=O)N[C@H](C(=O)N[C@@H](CC(C)C)C(=O)N[C@@H](C)C(=O)N[C@@H](CCC(N)=O)C(=O)N[C@H](C(N)=O)C(C)C)[C@@H](C)CC)[C@@H](C)O)[C@@H](C)CC)[C@@H](C)CC)C(C)C)C(C)C` [compound 56] (Ac-IVLSLD[dV]PIKLK([γGlu-C16 diacid])KILLEQEKQKKQREQAETNEQILAQV-NH2), in assay [1], the “Emax (% I)” value is on record as 3 % I and the EC50 was more than 250 nM. In addition, in assay [2], the 50% effective concentration (EC50) turned out to be 0.3 nM.
The matching figures for `CC[C@H](C)[C@H](NC(C)=O)C(=O)N[C@H](C(=O)N[C@@H](CC(C)C)C(=O)N[C@@H](CO)C(=O)N[C@@H](CC(C)C)C(=O)N[C@@H](CC(=O)O)C(=O)N[C@@H](C(=O)N1CCC[C@H]1C(=O)N[C@H](C(=O)N[C@@H](CCCCN)C(=O)N[C@@H](CC(C)C)C(=O)N[C@@H](CCCCNC(=O)CC[C@H](NC(=O)CCCCCCCCCCCCCCC(=O)O)C(=O)O)C(=O)N[C@@H](CCCCN)C(=O)N[C@H](C(=O)N[C@@H](CC(C)C)C(=O)N[C@@H](CC(C)C)C(=O)N[C@@H](CCC(=O)O)C(=O)N[C@@H](CCC(N)=O)C(=O)N[C@@H](CCC(=O)O)C(=O)N[C@@H](CCCCN)C(=O)N[C@@H](CCC(N)=O)C(=O)N[C@@H](CCCCN)C(=O)N[C@@H](CCCCN)C(=O)N[C@@H](CCC(N)=O)C(=O)N[C@@H](CCCNC(=N)N)C(=O)N[C@@H](CCC(=O)O)C(=O)N[C@@H](CCC(N)=O)C(=O)N[C@@H](C)C(=O)N[C@@H](CCC(=O)O)C(=O)N[C@H](C(=O)N[C@@H](CC(N)=O)C(=O)NC1(C(=O)N[C@@H](CCC(N)=O)C(=O)N[C@H](C(=O)N[C@@H](CC(C)C)C(=O)N[C@@H](C)C(=O)N[C@@H](CCC(N)=O)C(=O)N[C@H](C(N)=O)C(C)C)[C@@H](C)CC)CCCCC1)[C@@H](C)O)[C@@H](C)CC)[C@@H](C)CC)C(C)C)C(C)C` [compound 59] (Ac-IVLSLD[dV]PIKLK([γGlu-C16 diacid])KILLEQEKQKKQREQAETN[Ac6c]QILAQV-NH2): 9 % I, more than 250 nM and 0.81 nM.
As to `CC[C@H](C)[C@H](NC(C)=O)C(=O)N[C@H](C(=O)N[C@@H](CC(C)C)C(=O)N[C@@H](CO)C(=O)N[C@@H](CC(C)C)C(=O)N[C@@H](CC(=O)O)C(=O)N[C@@H](C(=O)N1CCC[C@H]1C(=O)N[C@H](C(=O)N[C@@H](CCCCN)C(=O)N[C@@H](CC(C)C)C(=O)N[C@@H](CCCCNC(=O)CC[C@H](NC(=O)CCCCCCCCCCCCCCC(=O)O)C(=O)O)C(=O)N[C@@H](CCCCN)C(=O)N[C@H](C(=O)N[C@@H](CC(C)C)C(=O)N[C@@H](CC(C)C)C(=O)N[C@@H](CCC(=O)O)C(=O)N[C@@H](CCC(N)=O)C(=O)N[C@@H](CCC(=O)O)C(=O)N[C@@H](CCCCN)C(=O)N[C@@H](CCC(N)=O)C(=O)N[C@@H](CCCCN)C(=O)N[C@@H](CCCCN)C(=O)N[C@@H](CCC(N)=O)C(=O)N[C@@H](CCCNC(=N)N)C(=O)N[C@@H](CCC(=O)O)C(=O)N[C@@H](CCC(N)=O)C(=O)N[C@@H](C)C(=O)N[C@@H](CCC(=O)O)C(=O)N[C@H](C(=O)N[C@@H](CC(N)=O)C(=O)NC1(C(=O)N[C@@H](CCC(N)=O)C(=O)N[C@H](C(=O)N[C@@H](CC(C)C)C(=O)N[C@@H](C)C(=O)N[C@@H](CCC(N)=O)C(=O)N[C@H](C(N)=O)C(C)C)[C@@H](C)CC)CCCC1)[C@@H](C)O)[C@@H](C)CC)[C@@H](C)CC)C(C)C)C(C)C` [compound 60] (Ac-IVLSLD[dV]PIKLK([γGlu-C16 diacid])KILLEQEKQKKQREQAETN[Ac5c]QILAQV-NH2), in assay [1], the “Emax (% I)” value turned out to be 5 % I and the EC50 was more than 250 nM. The same compound yielded a concentration for a half-maximal effect (EC50) in assay [2] of 0.34 nM.
The matching figures for `CC[C@H](C)[C@H](NC(C)=O)C(=O)N[C@H](C(=O)N[C@@H](CC(C)C)C(=O)N[C@@H](CO)C(=O)N[C@@H](CC(C)C)C(=O)N[C@@H](CC(=O)O)C(=O)N[C@@H](C(=O)N1CCC[C@H]1C(=O)N[C@H](C(=O)N[C@@H](CCCCN)C(=O)N[C@@H](CC(C)C)C(=O)N[C@@H](CCCCNC(=O)CC[C@H](NC(=O)CCCCCCCCCCCCCCC(=O)O)C(=O)O)C(=O)N[C@@H](CCCCN)C(=O)N[C@H](C(=O)N[C@@H](CC(C)C)C(=O)N[C@@H](CC(C)C)C(=O)N[C@@H](CCC(=O)O)C(=O)N[C@@H](CCC(N)=O)C(=O)N[C@@H](CCC(=O)O)C(=O)N[C@@H](CCCCN)C(=O)N[C@@H](CCC(N)=O)C(=O)N[C@@H](CCCCN)C(=O)N[C@@H](CCCCN)C(=O)N[C@@H](CCC(N)=O)C(=O)N[C@@H](CCCNC(=N)N)C(=O)N[C@@H](CCC(=O)O)C(=O)N[C@@H](CCC(N)=O)C(=O)N[C@@H](C)C(=O)N[C@@H](CCC(=O)O)C(=O)N[C@H](C(=O)N[C@@H](CC(N)=O)C(=O)NC1(C(=O)N[C@@H](CCC(N)=O)C(=O)N[C@H](C(=O)N[C@@H](CC(C)C)C(=O)N[C@@H](C)C(=O)N[C@@H](CCC(N)=O)C(=O)N[C@H](C(N)=O)C(C)C)[C@@H](C)CC)CC1)[C@@H](C)O)[C@@H](C)CC)[C@@H](C)CC)C(C)C)C(C)C` [compound 61] (Ac-IVLSLD[dV]PIKLK([γGlu-C16 diacid])KILLEQEKQKKQREQAETN[Ac3c]QILAQV-NH2): 3 % I, more than 250 nM and 0.36 nM.
The matching figures for `CC[C@H](C)[C@H](NC)C(=O)N[C@H](C(=O)N[C@@H](CC(C)C)C(=O)N[C@@H](CO)C(=O)N[C@@H](CC(C)C)C(=O)N[C@@H](CC(=O)O)C(=O)N[C@@H](C(=O)N1CCC[C@H]1C(=O)N[C@H](C(=O)N[C@@H](CCCCN)C(=O)N[C@@](C)(CC(C)C)C(=O)N[C@@H](CCCCNC(=O)CC[C@H](NC(=O)CCCCCCCCCCCCCCC(=O)O)C(=O)O)C(=O)N[C@@H](CCCCN)C(=O)N[C@H](C(=O)N[C@@H](CC(C)C)C(=O)N[C@@H](CC(C)C)C(=O)N[C@@H](CCC(=O)O)C(=O)N[C@@H](CCC(N)=O)C(=O)N[C@@H](CCC(=O)O)C(=O)N[C@@H](CCCCN)C(=O)N[C@@H](CCC(N)=O)C(=O)N[C@@H](CCCCN)C(=O)N[C@@H](CCCCN)C(=O)N[C@@H](CCC(N)=O)C(=O)N[C@@H](CCCNC(=N)N)C(=O)N[C@@H](CCC(=O)O)C(=O)N[C@@H](CCC(N)=O)C(=O)N[C@@H](C)C(=O)N[C@@H](CCC(=O)O)C(=O)N[C@H](C(=O)N[C@@H](CC(N)=O)C(=O)NC(C)(C)C(=O)N[C@@H](CCC(N)=O)C(=O)N[C@H](C(=O)N[C@@H](CC(C)C)C(=O)N[C@@H](C)C(=O)N[C@@H](CCC(N)=O)C(=O)N[C@H](C(N)=O)C(C)C)[C@@H](C)CC)[C@@H](C)O)[C@@H](C)CC)[C@@H](C)CC)C(C)C)C(C)C` [compound 65] (H-[NMeI]VLSLD[dV]PIK[αMeL]K([γGlu-C16 diacid])KILLEQEKQKKQREQAETN[Aib]QILAQV-NH2): 10 % I, more than 250 nM and 0.1 nM.
